The results in this text go back to patent US6344562B1, “Thiazole derivatives” (Hoffmann-La Roche Inc., priority 1998, dated 2002).

Structures are written as SMILES.

`CCOC(=O)CC(NC(=O)CNC(=O)c1csc(N=C2NCCN2)n1)c1cccnc1` (racemic) [Example 171, ethyl (RS)-3-(2-{[2-(imidazolidin-2-ylidenamino)-thiazole-4-carbonyl]-amino}-acetylamino)-3-pyridin-3-yl-propionate]: the melting point (as a rule, the temperature, or range, at which the solid turns liquid) was 198 to 199 °C.

In the case of `CCOC(=O)CC(CCCCNC(=O)c1sc(N=C2NCCCN2)nc1C)c1ccccc1` (racemic) [Example 173, ethyl rac-7-[[4-methyl-2-(tetrahydro-pyrimidin-2-ylideneamino)-thiazole-5-carbonyl]-amino]-3-phenyl-heptanoate], the melting point lay within 137 to 139 °C.

As to `CCOC(=O)CCNC(=O)CCNC(=O)c1csc(NC(=N)N)n1` [Example 7, ethyl 3-[3-[(2-guanidino-thiazole-4-carbonyl)-amino]-propionylamino]-propionate], the melting point was 154 to 157 °C.

`CCOC(=O)CCCC(=O)CNC(=O)c1csc(NC(=O)NCc2ccccc2)n1` [Example 82, ethyl 6-{[2-(3-benzyl-ureido)-thiazole-4-carbonyl]-amino}-5-oxo-hexanoate]: the melting point was 135 to 136 °C.

`O=C(O)CCCC(=O)CNC(=O)c1csc(NC(=O)NCc2ccccc2)n1` [Example 83, 6-{[2-(3-benzyl-ureido)-thiazole-4-carbonyl]-amino}-5-oxo-hexanoic acid]: the melting point was found to be 169 °C.

As to `CC(C)(C)OC(=O)C[C@H](NC(=O)CNC(=O)c1csc(NC(=O)NCc2ccccc2)n1)C(=O)NCc1ccccc1` [Example 129, tert-butyl (S)-N-benzyl-3-[2-[[2-(3-benzyl-ureido)-thiazole-4-carbonyl]-amino]-acetylamino]-succinamate], the melting point stood at 123 °C.

For `CCOC(=O)CCNC(=O)CNC(=O)c1csc(NC(=O)NCc2ccccc2)n1` [Example 131, ethyl 3-[2-[[2-(3-benzyl-ureido)-thiazole-4-carbonyl]-amino]-acetylamino]-propionate], the melting point was found to be 187 °C.

The molecule `COc1cccc(NC(=O)[C@H](CC(=O)O)NC(=O)CNC(=O)c2csc(NC(=O)NCc3ccccc3)n2)c1` [Example 134, (S)-3-[2-[[2-(3-benzyl-ureido)-thiazole-4-carbonyl]-amino]-acetylamino]-N-(3-methoxy-phenyl)-succinamic acid] had a melting point of 185 °C.

The molecule `CC(C)(C)OC(=O)C[C@H](NC(=O)CNC(=O)c1csc(NC(=O)NCc2ccccc2)n1)C(=O)Nc1ccccc1C(=O)OC(C)(C)C` [Example 135, tert-butyl (S)-2-[2-[2-[[2-(3-benzyl-ureido)-thiazole-4-carbonyl]-amino]-acetylamino]-3-tert-butoxycarbonyl-propionylamino]-benzoate] registered a melting point of 116 °C.

Molecule `O=C(O)C[C@H](NC(=O)CNC(=O)c1csc(NC(=O)NCc2ccccc2)n1)C(=O)Nc1ccccc1C(=O)O` [Example 136, (S)-2-[2-(2-{[2-(3-benzyl-ureido)-thiazole-4-carbonyl]-amino}-acetylamino)-3-carboxy-propionylamino]-benzoic acid] gave a melting point of 192 °C.

Take `COC(=O)CCCCCNC(=O)c1csc(NC(=O)NCc2ccccc2)n1` [Example 137, methyl 6-{[2-(3-benzyl-ureido)-thiazole-4-carbonyl]-amino}-hexanoate]: the melting point came out at 140 °C.

With `O=C(O)CCCCCNC(=O)c1csc(NC(=O)NCc2ccccc2)n1` [Example 138, 6-{[2-(3-benzyl-ureido)-thiazole-4-carbonyl]-amino}-hexanoic acid], the melting point was found to be 178 °C.

In turn, `CC(C)[C@H](NC(=O)[C@H](CC(=O)OC(C)(C)C)NC(=O)CNC(=O)c1csc(NC(=O)NCc2ccccc2)n1)C(=O)OC(C)(C)C` [Example 141, tert-butyl (S)-2-[(S)-2-[2-[[2-(3-benzyl-ureido)-thiazole-4-carbonyl]-amino]-acetylamino]-3-tert-butoxycarbonyl-propionylamino]-3-methyl-butyrate] came in with a melting point of 108 to 111 °C.

For `COC(=O)[C@H](CCCCNC(=O)c1csc(NC(=O)NCc2ccccc2)n1)NC(=O)OC(C)(C)C` [Example 145, methyl (S)-6-{[2-(3-benzyl-ureido)-thiazole-4-carbonyl]-amino}-2-tert-butoxycarbonylamino-hexanoate], the melting point stood at 166 °C.

As to `CC(C)(C)OC(=O)N[C@@H](CCCCNC(=O)c1csc(NC(=O)NCc2ccccc2)n1)C(=O)O` [Example 146, (S)-6-{[2-(3-benzyl-ureido)-thiazole-4-carbonyl]-amino}-2-tert-butoxycarbonylamino-hexanoic acid], the melting point worked out at 138 °C.

`CCOC(=O)CCc1ccc(NC(=O)c2csc(NC(=O)NCc3ccccc3)n2)cc1` [Example 153, ethyl 3-[4-[[2-(3-benzyl-ureido)-thiazole-4-carbonyl]-amino]-phenyl]-propionate]: the melting point was 194 °C.

In turn, `O=C(O)CCc1ccc(NC(=O)c2csc(NC(=O)NCc3ccccc3)n2)cc1` [Example 154, 3-[4-[[2-(3-benzyl-ureido)-thiazole-4-carbonyl]-amino]-phenyl]-propionic acid] had a melting point of 233 °C.

For `CC(C)(C)OC(=O)C[C@H](NC(=O)CNC(=O)c1csc(NC(=O)NCc2ccccc2)n1)C(=O)NCc1ccccn1` [Example 161, tert-butyl (S)-3-[2-[[2-(3-benzyl-ureido)-thiazole-4-carbonyl]-amino]-acetylamino]-N-pyridin-2-ylmethyl-succinamate], the melting point was determined as 108 °C.

In turn, `CC(C)(C)OC(=O)C[C@H](NC(=O)CNC(=O)c1csc(NC(=O)NCc2ccccc2)n1)C(=O)NCc1cccnc1` [Example 163, tert-butyl (S)-3-[2-[[2-(3-benzyl-ureido)-thiazole-4-carbonyl]-amino]-acetylamino]-N-pyridin-3-ylmethyl-succinamate] came in with a melting point of 185 °C.

In the case of `CC(C)(C)OC(=O)N[C@H](Cc1ccc(NC(=O)c2csc(NC(=O)NCc3ccccc3)n2)cc1)C(=O)O` [Example 166, (R)-3-[4-[[2-(3-benzyl-ureido)-thiazole-4-carbonyl]-amino]-phenyl]-2-tert-butoxycarbonylamino-propionic acid], the melting point was 232 °C.

The molecule `CC(C)(C)OC(=O)C[C@H](NC(=O)CNC(=O)c1csc(NC(=O)NCc2ccccn2)n1)C(=O)NCc1ccccn1` [Example 167, tert-butyl (S)-N-pyridin-2-ylmethyl-3-(2-{[2-(3-pyridin-2-ylmethyl-ureido)-thiazole-4-carbonyl]-amino}-acetylamino)-succinamate] registered a melting point of 112 °C.

In turn, `O=C(O)C[C@H](NC(=O)CNC(=O)c1csc(NC(=O)NCc2ccccn2)n1)C(=O)NCc1ccccn1` [Example 168, (S)-N-pyridin-2-ylmethyl-3-(2-{[2-(3-pyridin-2-ylmethyl-ureido)-thiazole-4-carbonyl]-amino}-acetylamino)-succinamic acid] registered a melting point of 164 °C.

As for `CC(C)(C)OC(=O)CCNC(=O)c1cccc(NC(=O)c2csc(NC(=O)NCc3ccccc3)n2)c1` [Example 169, tert-butyl 3-(3-{[2-(3-benzyl-ureido)-thiazole-4-carbonyl]-amino}-benzoylamino)-propionate], the melting point was 212 °C.

Regarding `O=C(O)CCNC(=O)c1cccc(NC(=O)c2csc(NC(=O)NCc3ccccc3)n2)c1` [Example 170, 3-(3-{[2-(3-benzyl-ureido)-thiazole-4-carbonyl]-amino}-benzoylamino)-propionic acid], the melting point was 157 °C.
